# Assay results: the supplement of paper PMC9663587
# Assays:
# THZ1 = compound: CN(C)C/C=C/C(=O)Nc1ccc(C(=O)Nc2cccc(Nc3ncc(Cl)c(-c4c[nH]c5ccccc45)n3)c2)cc1 [THZ1]; assay: GR value, 72 h; higher = faster growth (1 = untreated, <0 = killing);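 also: breast cancer and non-malignant breast epithelial lines, nine half-log doses, viable cells counted by Hoechst and LIVE/DEAD dye imaging versus time-zero plates and DMSO controls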
# Neratinib/HKI272 = compound: CCOc1cc2ncc(C#N)c(Nc3ccc(OCc4ccccn4)c(Cl)c3)c2cc1NC(=O)/C=C/CN(C)C [Neratinib/HKI272]; assay: as above
# BSJ-03-123 = compound: CC(=O)c1c(C)c2cnc(Nc3ccc(N4CCN(CCOCCOCCOCCNC(=O)COc5cccc6c5C(=O)N(C5CCC(=O)NC5=O)C6=O)CC4)cn3)nc2n(C2CCCC2)c1=O [BSJ-03-123]; assay: as above
# [1] = compound: CC(=O)c1c(C)c2cnc(Nc3ccc(N4CCNCC4)cn3)nc2n(C2CCCC2)c1=O; assay: as above
# [2] = compound: CCc1cnn2c(NCc3ccc[n+]([O-])c3)cc(N3CCCC[C@H]3CCO)nc12; assay: as above
# [3] = compound: CCN1CCN(Cc2ccc(Nc3ncc(F)c(-c4cc(F)c5nc(C)n(C(C)C)c5c4)n3)nc2)CC1; assay: as above
# LEE011/Ribociclib [4] = compound: T1, CN(C)C(=O)c1cc2cnc(Nc3ccc(N4CCNCC4)cn3)nc2n1C1CCCC1 [LEE011/Ribociclib]; assay: as above
# Flavopiridol [5] = compound: T2, CN1CC[C@H](c2c(O)cc(O)c3c(=O)cc(-c4ccccc4Cl)oc23)[C@H](O)C1 [Flavopiridol]; assay: as above
# [6] = compound: CC(=O)c1c(C)c2cnc(Nc3ccc(N4CCNCC4)cn3)nc2n(C2CCCC2)c1=O; assay: increase in dead-cell fraction, 72 h; higher = more death;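 also: breast cancer cell lines in 384-well plates, stained with Hoechst plus LIVE/DEAD far red dye and imaged, cells above an LDR intensity threshold counted dead, Hoechst-negative corpses included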
# [7] = compound: CCN1CCN(Cc2ccc(Nc3ncc(F)c(-c4cc(F)c5nc(C)n(C(C)C)c5c4)n3)nc2)CC1; assay: as above
# LEE011/Ribociclib [8] = compound: T1, LEE011/Ribociclib; assay: as above
# Flavopiridol [9] = compound: T2, Flavopiridol; assay: as above
cell line,measurement,setting,value
CAL51,GR value,THZ1; 0.0001 µM,1.05 GR
same,GR value,THZ1; 0.0003162 µM,0.971 GR
same,GR value,THZ1; 0.001 µM,0.953 GR
same,GR value,THZ1; 0.003162 µM,0.953 GR
same,GR value,THZ1; 0.01 µM,0.938 GR
same,GR value,THZ1; 0.03162 µM,0.882 GR
same,GR value,THZ1; 0.1 µM,0.871 GR
same,GR value,THZ1; 0.3162 µM,0.601 GR
same,GR value,THZ1; 1 µM,0.0924 GR
same,GR value,Neratinib/HKI272; 0.0003162 µM,0.983 GR
same,GR value,Neratinib/HKI272; 0.001 µM,1 GR
same,GR value,Neratinib/HKI272; 0.003162 µM,0.938 GR
same,GR value,Neratinib/HKI272; 0.01 µM,1.01 GR
same,GR value,Neratinib/HKI272; 0.03162 µM,1 GR
same,GR value,Neratinib/HKI272; 0.1 µM,0.975 GR
same,GR value,Neratinib/HKI272; 0.3162 µM,0.94 GR
same,GR value,Neratinib/HKI272; 1 µM,0.833 GR
same,GR value,Neratinib/HKI272; 3.162 µM,0.293 GR
same,GR value,BSJ-03-123; 0.001 µM,0.894 GR
same,GR value,BSJ-03-123; 0.003162 µM,0.912 GR
same,GR value,BSJ-03-123; 0.01 µM,0.915 GR
same,GR value,BSJ-03-123; 0.03162 µM,0.898 GR
same,GR value,BSJ-03-123; 0.1 µM,0.895 GR
same,GR value,BSJ-03-123; 0.3162 µM,0.818 GR
same,GR value,BSJ-03-123; 1 µM,0.763 GR
same,GR value,BSJ-03-123; 3.162 µM,0.76 GR
same,GR value,BSJ-03-123; 10 µM,0.121 GR
same,GR value,[1]; 0.0003162 µM,0.968 GR
same,GR value,[1]; 0.001 µM,1.02 GR
same,GR value,[1]; 0.003162 µM,0.982 GR
same,GR value,[1]; 0.01 µM,0.911 GR
same,GR value,[1]; 0.03162 µM,0.783 GR
same,GR value,[1]; 0.1 µM,0.646 GR
same,GR value,[1]; 0.3162 µM,0.516 GR
same,GR value,[1]; 1 µM,0.446 GR
same,GR value,[1]; 3.162 µM,0.354 GR
same,GR value,[2]; 0.0001 µM,0.999 GR
same,GR value,[2]; 0.0003162 µM,0.954 GR
same,GR value,[2]; 0.001 µM,1.03 GR
same,GR value,[2]; 0.003162 µM,0.974 GR
same,GR value,[2]; 0.01 µM,0.831 GR
same,GR value,[2]; 0.03162 µM,-0.218 GR
same,GR value,[2]; 0.1 µM,-0.356 GR
same,GR value,[2]; 0.3162 µM,-0.355 GR
same,GR value,[2]; 1 µM,-0.341 GR
same,GR value,[3]; 0.001 µM,0.966 GR
same,GR value,[3]; 0.003162 µM,0.882 GR
same,GR value,[3]; 0.01 µM,0.752 GR
same,GR value,[3]; 0.03162 µM,0.569 GR
same,GR value,[3]; 0.1 µM,0.501 GR
same,GR value,[3]; 0.3162 µM,0.365 GR
same,GR value,[3]; 1 µM,0.207 GR
same,GR value,[3]; 3.162 µM,-0.124 GR
same,GR value,[3]; 10 µM,-0.46 GR
same,GR value,LEE011/Ribociclib [4]; 0.001 µM,0.899 GR
same,GR value,LEE011/Ribociclib [4]; 0.003162 µM,0.874 GR
same,GR value,LEE011/Ribociclib [4]; 0.01 µM,0.808 GR
same,GR value,LEE011/Ribociclib [4]; 0.03162 µM,0.772 GR
same,GR value,LEE011/Ribociclib [4]; 0.1 µM,0.693 GR
same,GR value,LEE011/Ribociclib [4]; 0.3162 µM,0.658 GR
same,GR value,LEE011/Ribociclib [4]; 1 µM,0.631 GR
same,GR value,LEE011/Ribociclib [4]; 3.162 µM,0.55 GR
same,GR value,LEE011/Ribociclib [4]; 10 µM,0.396 GR
same,GR value,Flavopiridol [5]; 0.0001 µM,0.98 GR
same,GR value,Flavopiridol [5]; 0.0003162 µM,0.944 GR
same,GR value,Flavopiridol [5]; 0.001 µM,0.962 GR
same,GR value,Flavopiridol [5]; 0.003162 µM,0.909 GR
same,GR value,Flavopiridol [5]; 0.01 µM,0.842 GR
same,GR value,Flavopiridol [5]; 0.03162 µM,0.887 GR
same,GR value,Flavopiridol [5]; 0.1 µM,0.708 GR
same,GR value,Flavopiridol [5]; 0.3162 µM,0.353 GR
same,GR value,Flavopiridol [5]; 1 µM,-0.099 GR
same,increase in dead-cell fraction,[6]; 0.0003162 µM,-0.0042
same,increase in dead-cell fraction,[6]; 0.001 µM,-0.0013
same,increase in dead-cell fraction,[6]; 0.003162 µM,-0.0116
same,increase in dead-cell fraction,[6]; 0.01 µM,-0.0114
same,increase in dead-cell fraction,[6]; 0.03162 µM,-0.0305
same,increase in dead-cell fraction,[6]; 0.1 µM,-0.0374
same,increase in dead-cell fraction,[6]; 0.3162 µM,-0.0371
same,increase in dead-cell fraction,[6]; 1 µM,-0.036
same,increase in dead-cell fraction,[6]; 3.162 µM,-0.029
same,increase in dead-cell fraction,[7]; 0.001 µM,-0.009
same,increase in dead-cell fraction,[7]; 0.003162 µM,-0.0216
same,increase in dead-cell fraction,[7]; 0.01 µM,-0.032
same,increase in dead-cell fraction,[7]; 0.03162 µM,-0.0343
same,increase in dead-cell fraction,[7]; 0.1 µM,-0.0329
same,increase in dead-cell fraction,[7]; 0.3162 µM,-0.0295
same,increase in dead-cell fraction,[7]; 1 µM,-0.0018
same,increase in dead-cell fraction,[7]; 3.162 µM,0.239
same,increase in dead-cell fraction,[7]; 10 µM,0.727
same,increase in dead-cell fraction,LEE011/Ribociclib [8]; 0.001 µM,-0.0032
same,increase in dead-cell fraction,LEE011/Ribociclib [8]; 0.003162 µM,-0.0038
same,increase in dead-cell fraction,LEE011/Ribociclib [8]; 0.01 µM,-0.0003
same,increase in dead-cell fraction,LEE011/Ribociclib [8]; 0.03162 µM,0.0052
same,increase in dead-cell fraction,LEE011/Ribociclib [8]; 0.1 µM,0.0083
same,increase in dead-cell fraction,LEE011/Ribociclib [8]; 0.3162 µM,0.0065
same,increase in dead-cell fraction,LEE011/Ribociclib [8]; 1 µM,0.0053
same,increase in dead-cell fraction,LEE011/Ribociclib [8]; 3.162 µM,0.0086
same,increase in dead-cell fraction,LEE011/Ribociclib [8]; 10 µM,0.0229
same,increase in dead-cell fraction,Flavopiridol [9]; 0.0001 µM,-0.0023
same,increase in dead-cell fraction,Flavopiridol [9]; 0.0003162 µM,0.0009
same,increase in dead-cell fraction,Flavopiridol [9]; 0.001 µM,-0.0005
same,increase in dead-cell fraction,Flavopiridol [9]; 0.003162 µM,0.004
same,increase in dead-cell fraction,Flavopiridol [9]; 0.01 µM,0.0023
same,increase in dead-cell fraction,Flavopiridol [9]; 0.03162 µM,0.006
same,increase in dead-cell fraction,Flavopiridol [9]; 0.1 µM,0.011
same,increase in dead-cell fraction,Flavopiridol [9]; 0.3162 µM,0.068
same,increase in dead-cell fraction,Flavopiridol [9]; 1 µM,0.234
